Results taken from patent US20100136137A1, “THERAPEUTIC COMBINATION OF A PANHER/VEGFR2 KINASE INHIBITOR AND A PLATINUM COMPOUND” (Bristol-Meyers Squibb Company, priority 2006, published 2010).

Tests used:
Assay type in all cases: cell-based
NSCLC cell lines [1] = test: Apoptosis-associated changes by DiOC63 (Δψm) and propidium iodide (viability) staining
Description: The fluorochromes, 3,3′-dihexyloxacarbocyanine iodide (DiOC63) and propidium iodide (PI) were employed to determine different apoptosis-associated changes. DiOC63 was used for the loss of mitochondrial transmembrane potential (Δψm) and PI was used for the loss of viability.

A549 cells = test: siRNA knockdown of apoptosis pathway components in A549 cells, Compound I induced cell death
Method: (§1) Non-Small Cell Lung Cancer cell lines with different EGFR and p53 mutation status were used. Variable doses of Compound I or cisplatin were used to induce death or proliferative death of the cells. A549 cells were transfected with siRNAs, and transfected cells were cultured for 48 hours prior to the administration of the drugs to attain the maximal down-regulation of the target proteins.

NSCLC cell lines [2] = test: Anti-proliferative/pro-apoptotic effects in NSCLC cell lines with different EGFR and p53 mutation status
Method: as §1

How did the “dissipation of Δψm (marker of early apoptosis)” value (NSCLC cell lines [1]; DiOC63 staining) turn out when COc1cccc(Nc2ncnn3ccc(CN4CC[C@@H](N)[C@H](O)C4)c23)c1 [Compound I, 4-Amino-1-[[4-[(3-methoxyphenyl)amino]pyrrolo [2,1-f][1,2,4]triazin-5-yl]methyl]-(3R,4R)-3-piperidinol] was run?
Its value is “induced dissipation of Δψm”.

What about the “incorporation of PI (marker of late apoptosis, loss of viability)” value (NSCLC cell lines [1]; propidium iodide staining) of the same molecule?
Its value is “incorporation of PI”.

What about the “effect of pan-caspase inhibitor z-VAD.fmk on the loss of viability” value (NSCLC cell lines [1]; with z-VAD.fmk) of the same molecule?
The value was “no effect”.

What about the “effect of pan-caspase inhibitor z-VAD.fmk on the reduction of the Δψm” value (NSCLC cell lines [1]; with z-VAD.fmk) of the same molecule?
The value was “only a minor protective effect”.

What about the “effect of caspase-2 down-regulation on Compound I induced cell-death” value (A549 cells; 24 and 48 hours) of the same molecule?
The value was “limited protection against Compound I induced cell-death at 24 hours, but not at 48 hours”.

What about the “effect of Bcl-2 down-regulation, alone or in combination with Bcl-XL, on the effect of Compound I” value (A549 cells; both 24 and 48 hours) of the same molecule?
The value was “strongly sensitized A549 cells”.

What about the “order of sensitivity of cell lines” value (NSCLC cell lines [2]; NCI-H1975, NCI-H1650, NCIH1299, A549) of the same molecule?
The value was “NCI-H1975>>NCI-H1650=NCIH1299>A549”.

What about the anti-proliferative/pro-apoptotic effects (NSCLC cell lines [2]; all NSCLC cell lines tested, including wild-type EGFR and T790M mutant) of the same molecule?
The anti-proliferative/pro-apoptotic effects was “induced anti-proliferative/pro-apoptotic effects in all NSCLC cell lines tested”.
